Measured values reported in publication PMC12645998, “Optimization of VE607 to generate analogs with improved neutralization activities against SARS-CoV-2 variants” (Journal of Virology, 2025).
“And” between values parts separate entries of the source, which are not always exact repeats. Identical values can stand only once. Like-named read-outs stand apart in the source and are kept apart here.

Tests used:
[1] = test system: pseudoviral particles carrying VSV-G; experiment: microbe, parasite or virus in culture; assay type: cell-based; settings: Vesicular stomatitis virus
[2] = test system: pseudoviral particles carrying SARS-CoV-1 S; experiment: microbe, parasite or virus in culture; assay type: cell-based
[3] = test system: pseudoviral particles bearing the Spike glycoprotein from SARS-CoV-2; experiment: microbe, parasite or virus in culture; assay type: cell-based; settings: pseudovirus, 293T-ACE2 cells, compounds up to 100 µM
[4] = test system: SARS-CoV-2 B.1.1.7 Spike pseudovirus; experiment: organism not typed; assay type: cell-based; settings: read-out: IC50 B.1.1.7
[5] = test system: SARS-CoV-2 BA.4/5 Spike pseudovirus; experiment: organism not typed; assay type: cell-based; settings: read-out: IC50 BA.4/5
[6] = test system: SARS-CoV-2 XBB.1.5 Spike pseudovirus; experiment: organism not typed; assay type: cell-based; settings: read-out: IC50 XBB.1.5
[7] = test system: SARS-CoV-2 XBB.1.16 Spike pseudovirus; experiment: organism not typed; assay type: cell-based; settings: read-out: IC50 XBB.1.16
[8] = test system: SARS-CoV-2 BA.2.86 Spike pseudovirus; experiment: organism not typed; assay type: cell-based; settings: read-out: IC50 BA.2.86
[9] = test system: SARS-CoV-2 EG.5.1 Spike pseudovirus; experiment: organism not typed; assay type: cell-based; settings: read-out: IC50 EG.5.1
[10] = test system: SARS-CoV-2 HK.3 Spike pseudovirus; experiment: organism not typed; assay type: cell-based; settings: read-out: IC50 HK.3
[11] = test system: SARS-CoV-2 JN.1 Spike pseudovirus; experiment: organism not typed; assay type: cell-based; settings: read-out: IC50 JN.1
[12] = test system: SARS-CoV-2 KP.3.1.1 Spike pseudovirus; experiment: organism not typed; assay type: cell-based; settings: read-out: IC50 KP.3.1.1
[13] = test system: SARS-CoV-2 XEC Spike pseudovirus; experiment: organism not typed; assay type: cell-based; settings: read-out: IC50 XEC
[14] = test system: authentic SARS-CoV-2 XBB.1; experiment: microbe, parasite or virus in culture; assay type: cell-based; settings: Severe acute respiratory syndrome coronavirus 2, Vero C1008, read-out: IC50 authentic SARS-CoV-2 XBB.1
[15] = test system: SARS-CoV-2 (Wuhan strain) ectodomain SΔTM trimers; settings: 0.1 µM labeled Spike; 50 µM compound, 0.3 µM CV3-13, 0.6 µM ACE2; unbound Spike 40% ± 2%
SARS-CoV-2WA1-nLuc = test system: SARS-CoV-2WA1-nLuc; parameters: species or system K18-hACE2 mice; settings: mouse, in vivo
[16] = in vivo
Vero-E6 cells = experiment: Cell viability test (CellTiter-Glo), Vero-E6; settings: concentrations up to 100 µM, 48 h
293T-ACE2 cells = experiment: Cell viability test (CellTiter-Glo), 293T-ACE2; settings: concentrations up to 100 µM, 48 h
[17] = Solubility in phosphate-buffered saline
[18] = 293T/ACE2, read-out: IC50 VSV-G
[19] = Severe acute respiratory syndrome coronavirus, 293T/ACE2, read-out: IC50 SARS-CoV-1
[20] = Severe acute respiratory syndrome coronavirus 2, 293T/ACE2, read-out: IC50 SARS-CoV-2, Table 1

Molecule | IC50 [1, 18] | IC50 ([1]; 293T/ACE2, read-out: IC50 VSVG) | IC50 [2, 19] | IC50 ([2]; read-out: IC50 SARS-CoV-1) | IC50 [3, 20] | IC50 [4] | IC50 [5] | IC50 [6] | IC50 [7] | IC50 [8] | IC50 [9] | IC50 [10] | IC50 [11] | IC50 [12] | IC50 [13] | IC50 [14] | RBD-up conformation occupancy [15] | Toxicity in Vero-E6 cells (Vero-E6 cells) | Toxicity in 293T-ACE2 cells (293T-ACE2 cells) | Solubility in phosphate-buffered saline (PBS) [17] | further results
O[C@@H](COc1cccc(OC[C@H](O)CN2CCCCC2)c1)CN1CCCCC1 [(R,R)-VE607, reference compound] | > 100000 nM | > 100000 nM | 800 nM | 890 nM | 980 nM | 1170 nM | 5780 nM | 990 nM | 2030 nM | 2640 nM | 1310 nM | 3880 nM | 6400 nM | 4680 nM | 3900 nM | 58600 nM |  |  |  |  | 
CN(C)C[C@@H](O)COc1cc(Br)cc(OC[C@H](O)CN(C)C)c1 [Compound 27] | 52400 nM | > 100000 nM | 620 nM | 625 nM and 930 nM | 440 nM | 1120 nM | 1450 nM | 1040 nM | 1800 nM | 3300 nM | 1130 nM | 730 nM | 1340 nM | 2380 nM | 1790 nM | 24000 nM | 55% ± 2% | no toxicity | no toxicity |  | IC50 ([3]; read-out: IC50 SARS-CoV-2, Table 1): 437 nM; Protection / survival outcome (SARS-CoV-2WA1-nLuc): succumbed to virus-induced mortality; Survival extended compared to the control group (SARS-CoV-2WA1-nLuc): 1 days; Concentration in plasma ([16]; both, K18-hACE2, mouse): ~ 1.5 µM; Plasma retention ([16]; mouse): short plasma retention; Brain penetration ([16]; mouse, ip): minimal penetration in the brain
CN1CCN(C[C@@H](O)COc2cc(Br)cc(OC[C@H](O)CN3CCN(C)CC3)c2)CC1 [Compound 30] | 80800 nM | > 100000 nM | 1980 nM | 1310 nM | 1480 nM | 1260 nM | 4880 nM | 1050 nM | 1400 nM | 3520 nM | 1500 nM | 540 nM | 3900 nM | 2160 nM | 3090 nM | 38000 nM |  | no toxicity | no toxicity |  | 
Cc1cccc(N2CCN(C[C@@H](O)COc3cc(Br)cc(OC[C@H](O)CN4CCN(c5cccc(C)c5)CC4)c3)CC2)c1 [Compound 31] |  |  |  |  |  |  |  |  |  |  |  |  |  |  |  |  |  |  |  | b Insoluble in phosphate-buffered saline (PBS). | 
O[C@@H](COc1cc(Br)cc(OC[C@H](O)CN2CCC(O)(c3ccc(Cl)cc3)CC2)c1)CN1CCC(O)(c2ccc(Cl)cc2)CC1 [Compound 32] |  |  |  |  |  |  |  |  |  |  |  |  |  |  |  |  |  |  |  | b Insoluble in phosphate-buffered saline (PBS). | 
CCN(C)C[C@@H](O)COc1cc(Br)cc(OC[C@H](O)CN(C)CC)c1 [Compound 33] | > 100000 nM | > 100000 nM | 1440 nM | 1300 nM | 1710 nM | 1440 nM | 2810 nM | 2430 nM | 2130 nM | 2970 nM | 1820 nM | 2350 nM | 2020 nM | 2990 nM | 2390 nM | 17000 nM | 61% ± 2% | no toxicity | no toxicity |  | 
O[C@H](CNCc1ccc(OC(F)(F)F)cc1)COc1cc(Br)cc(OC[C@H](O)CNCc2ccc(OC(F)(F)F)cc2)c1 [Compound 39] |  |  |  |  |  |  |  |  |  |  |  |  |  |  |  |  |  |  |  | b Insoluble in phosphate-buffered saline (PBS). | 
ACE2 |  |  |  |  |  |  |  |  |  |  |  |  |  |  |  |  | 67% ± 2% |  |  |  | 
